Measured values reported in publication PMC5869712 (Scientific Reports, 2018).
pIC50: −log10 of the molar value. Like-named read-outs stand apart in the source and are kept apart here.

Legend:
[1] = test system: serum TNF-α, IL-1β and IL-6 in CIA mice; assay: Serum cytokines of CIA mice by ELISA; type: in vivo, mouse
[2] = test system: GM-CSF-induced JAK/STAT5 phosphorylation in TF-1 cells (JAK2); assay: STAT5 phosphorylation induced by GM-CSF in TF-1 cells, Western blot
Fms = target: T1, Fms (Homo sapiens, UniProt P07333); assay: Eurofins Kinase Profiler panel; type: biochemical; settings: read-out: % inhibition (1μM), DMSO control=100%, lower=stronger
T1 construct: purchased Eurofins Pharma Discovery Services UK Limited (Kinase Profiler screening platform)

ALK4 = target: T2, ALK4 (Homo sapiens, UniProt P36896); assay: Eurofins Kinase Profiler panel; type: biochemical; settings: read-out: % inhibition (1μM), DMSO control=100%, lower=stronger
T2 construct: purchased Eurofins KinaseProfiler (Eurofins Pharma Discovery Services UK, Dundee); JAK3 also ChemPartner

FGFR1 = target: T3, FGFR1 (Homo sapiens, UniProt P11362); assay: Eurofins Kinase Profiler panel; type: biochemical; settings: read-out: % inhibition (1μM), DMSO control=100%, lower=stronger
T3 construct: purchased Eurofins Pharma Discovery Services UK Limited (Kinase Profiler screening platform)

CDK1 = target: T4, CDK1 (Homo sapiens, UniProt P06493); assay: Eurofins Kinase Profiler panel; type: biochemical; settings: read-out: % inhibition (1μM), DMSO control=100%, lower=stronger
T4 construct: purchased Eurofins KinaseProfiler (Eurofins Pharma Discovery Services UK, Dundee); JAK3 also ChemPartner

ALK = target: T5, ALK (Homo sapiens, UniProt Q9UM73); assay: Eurofins Kinase Profiler panel; type: biochemical; settings: read-out: % inhibition (1μM), DMSO control=100%, lower=stronger
T5 construct: purchased Eurofins KinaseProfiler (Eurofins Pharma Discovery Services UK, Dundee); JAK3 also ChemPartner

Flt3 = target: T6, Flt3 (Homo sapiens, UniProt P36888); assay: Eurofins Kinase Profiler panel; type: biochemical; settings: read-out: % inhibition (1μM), DMSO control=100%, lower=stronger
T6 construct: purchased Eurofins Pharma Discovery Services UK Limited (Kinase Profiler screening platform)

MKK6 = target: T7, MKK6 (Homo sapiens, UniProt P52564); assay: Eurofins Kinase Profiler panel; type: biochemical; settings: read-out: % inhibition (1μM), DMSO control=100%, lower=stronger
T7 construct: Eurofins Pharma Discovery Services UK Limited (Kinase Profiler service)

[3] = test system: DBA/1 mice with collagen-induced arthritis; assay: Collagen-induced arthritis mouse model: clinical score, histology, safety; type: in vivo; settings: CIA mice; for group mean histological severity score: model group 3.8, grades 0-4
Protocol: The animal protocol was approved by the Animal Care and Use Committee of Sichuan University in China (IACUC number: 20100318). DBA/1 J mice (male, 6 weeks old) were obtained from Jackson Laboratory (Bar Harbor, ME). One day before the start of the experiment, CII solution (2 mg/ml) was prepared with 0.05 M acetic acid and stored at 4 °C. Just before the immunization, equal volumes of IFA and CII were mixed by a homogenizer in a precooled glass bottle in an ice water bath. Arthritis was induced in 8-week old male DBA/1 mice by immunizations with a 1:1 emulsion of bovine type II collagen (Chondrex) and Freund’s complete adjuvant (Sigma-Aldrich) on day 0 and with a 1:1 emulsion of bovine type II collagen in Freund’s incomplete adjuvant (Sigma-Aldrich) on day 21. […] On the day treatment was initiated, the mice were randomly assigned to controls (no collagen injection plus vehicle; […]. Mice were scored daily for signs of arthritis for 33 days. CIA development was inspected three times per week, and the inflammation of the four paws was graded from 0 to 4 (grade 0, paws with no swelling or focal redness; grade 1, paws with swelling of finger joints; grade 2, paws with a mild swelling of the ankle or wrist joints; grade 3, paws with severe inflammation of the entire paw; and grade 4, paws with deformity or ankylosis). Each paw was graded, and the four scores were totalled so that the possible maximum score per mouse was 16.
DBA1/J mice were sacrificed on day 33 after treatment and ankle joints were removed and fixed with 4% paraformaldehyde for more than 48 h. The joints were decalcified in EDTA buffer for 21 days and then embedded in paraffin blocks. Joint sections were stained with H&E or safranin O-fast green. Histological changes were examined under microscope using methods modified from McKew et al.[43] as follows: grade 0 = no abnormal findings; grade 1 = synoviocyte hypertrophy, slight synovial membrane fibrosis, slight-to-mild inflammatory cell infiltrates into the synovial membrane/articular capsule and/or joint space; grade 2 = grade 1 plus mild-to-moderate inflammatory cell infiltrates, pannus formation (if present) minimal with superficial cartilage erosion; grade 3 = grade 2 plus marked inflammatory cell infiltrates and fibrosis, mild-to-severe erosion of the cartilage extending into the subchondral bone; and grade 4 = loss of joint integrity through erosion or destruction with bone remodelling, massive inflammatory cell infiltrates, fibrosis, and ankylosis.

IKKα = target: T8, IKKα (Homo sapiens, UniProt O15111); assay: Eurofins Kinase Profiler panel; type: biochemical; settings: read-out: % inhibition (1μM), DMSO control=100%, lower=stronger
T8 construct: purchased Eurofins KinaseProfiler (Eurofins Pharma Discovery Services UK, Dundee); JAK3 also ChemPartner

ITK = target: T9, ITK (Homo sapiens, UniProt Q08881); assay: Cys-containing kinase family panel (EurofinsCerep); type: biochemical
T9 construct: EurofinsCerep (contract assay service)

IGF-1R = target: T10, IGF-1R (Homo sapiens, UniProt P08069); assay: Eurofins Kinase Profiler panel; type: biochemical; settings: read-out: % inhibition (1μM), DMSO control=100%, lower=stronger
T10 construct: purchased Eurofins KinaseProfiler (Eurofins Pharma Discovery Services UK, Dundee); JAK3 also ChemPartner

[4] = test system: IL-6-induced JAK/STAT3 phosphorylation in TF-1 cells (JAK1); assay: STAT3 phosphorylation induced by IL-6 in TF-1 cells, Western blot
[5] = test system: IFN-γ-induced JAK/STAT1 phosphorylation in U2OS cells (JAK1/JAK2); assay: STAT1 phosphorylation induced by IFN-γ in U2OS cells, Western blot; settings: for IC50: Homo sapiens
GSK3β = target: T11, GSK3β (Homo sapiens, UniProt P49841); assay: Eurofins Kinase Profiler panel; type: biochemical; settings: read-out: % inhibition (1μM), DMSO control=100%, lower=stronger
T11 construct: purchased Eurofins KinaseProfiler (Eurofins Pharma Discovery Services UK, Dundee); JAK3 also ChemPartner

ACK1 = target: T12, ACK1 (Homo sapiens, UniProt Q07912); assay: Eurofins Kinase Profiler panel; type: biochemical; settings: read-out: % inhibition (1μM), DMSO control=100%, lower=stronger
T12 construct: purchased Eurofins KinaseProfiler (Eurofins Pharma Discovery Services UK, Dundee); JAK3 also ChemPartner
T12 sequence (Q07912 whole entry): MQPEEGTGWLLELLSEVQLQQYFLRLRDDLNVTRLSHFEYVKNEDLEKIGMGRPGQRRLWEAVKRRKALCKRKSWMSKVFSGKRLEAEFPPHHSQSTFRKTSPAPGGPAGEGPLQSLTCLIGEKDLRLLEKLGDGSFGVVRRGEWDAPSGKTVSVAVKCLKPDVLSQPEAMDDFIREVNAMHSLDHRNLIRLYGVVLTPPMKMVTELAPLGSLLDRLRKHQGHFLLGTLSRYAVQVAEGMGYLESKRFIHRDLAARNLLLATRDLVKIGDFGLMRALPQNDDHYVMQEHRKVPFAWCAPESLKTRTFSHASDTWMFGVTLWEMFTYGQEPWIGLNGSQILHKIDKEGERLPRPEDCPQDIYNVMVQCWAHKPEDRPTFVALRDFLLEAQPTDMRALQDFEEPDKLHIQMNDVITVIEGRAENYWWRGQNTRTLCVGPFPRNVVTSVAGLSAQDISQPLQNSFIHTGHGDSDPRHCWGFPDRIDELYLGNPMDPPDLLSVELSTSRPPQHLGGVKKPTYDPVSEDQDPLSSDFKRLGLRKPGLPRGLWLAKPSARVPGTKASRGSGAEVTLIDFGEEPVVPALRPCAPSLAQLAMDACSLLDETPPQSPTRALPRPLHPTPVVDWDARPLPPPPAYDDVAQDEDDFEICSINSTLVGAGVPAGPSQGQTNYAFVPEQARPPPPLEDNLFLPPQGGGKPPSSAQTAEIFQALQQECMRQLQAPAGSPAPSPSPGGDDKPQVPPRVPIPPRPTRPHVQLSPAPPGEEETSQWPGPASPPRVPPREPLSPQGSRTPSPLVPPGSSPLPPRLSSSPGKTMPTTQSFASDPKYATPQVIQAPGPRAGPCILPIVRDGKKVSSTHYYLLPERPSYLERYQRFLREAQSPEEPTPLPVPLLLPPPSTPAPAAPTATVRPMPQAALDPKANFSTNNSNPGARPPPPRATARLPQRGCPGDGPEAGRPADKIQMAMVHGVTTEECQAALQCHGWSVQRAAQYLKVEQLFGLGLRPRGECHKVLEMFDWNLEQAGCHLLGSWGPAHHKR

T11 sequence (P49841 whole entry): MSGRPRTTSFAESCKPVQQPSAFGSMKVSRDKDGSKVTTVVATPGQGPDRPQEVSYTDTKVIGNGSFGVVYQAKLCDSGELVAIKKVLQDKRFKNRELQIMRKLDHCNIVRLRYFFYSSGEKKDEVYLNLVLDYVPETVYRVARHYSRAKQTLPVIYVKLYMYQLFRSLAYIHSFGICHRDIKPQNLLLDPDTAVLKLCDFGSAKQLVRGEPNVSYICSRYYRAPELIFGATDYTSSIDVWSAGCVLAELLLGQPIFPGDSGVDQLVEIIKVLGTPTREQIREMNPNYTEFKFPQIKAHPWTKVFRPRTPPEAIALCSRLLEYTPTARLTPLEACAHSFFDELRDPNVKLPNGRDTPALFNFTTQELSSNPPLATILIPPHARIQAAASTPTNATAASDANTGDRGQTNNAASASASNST
T10 sequence (P08069 31-1367): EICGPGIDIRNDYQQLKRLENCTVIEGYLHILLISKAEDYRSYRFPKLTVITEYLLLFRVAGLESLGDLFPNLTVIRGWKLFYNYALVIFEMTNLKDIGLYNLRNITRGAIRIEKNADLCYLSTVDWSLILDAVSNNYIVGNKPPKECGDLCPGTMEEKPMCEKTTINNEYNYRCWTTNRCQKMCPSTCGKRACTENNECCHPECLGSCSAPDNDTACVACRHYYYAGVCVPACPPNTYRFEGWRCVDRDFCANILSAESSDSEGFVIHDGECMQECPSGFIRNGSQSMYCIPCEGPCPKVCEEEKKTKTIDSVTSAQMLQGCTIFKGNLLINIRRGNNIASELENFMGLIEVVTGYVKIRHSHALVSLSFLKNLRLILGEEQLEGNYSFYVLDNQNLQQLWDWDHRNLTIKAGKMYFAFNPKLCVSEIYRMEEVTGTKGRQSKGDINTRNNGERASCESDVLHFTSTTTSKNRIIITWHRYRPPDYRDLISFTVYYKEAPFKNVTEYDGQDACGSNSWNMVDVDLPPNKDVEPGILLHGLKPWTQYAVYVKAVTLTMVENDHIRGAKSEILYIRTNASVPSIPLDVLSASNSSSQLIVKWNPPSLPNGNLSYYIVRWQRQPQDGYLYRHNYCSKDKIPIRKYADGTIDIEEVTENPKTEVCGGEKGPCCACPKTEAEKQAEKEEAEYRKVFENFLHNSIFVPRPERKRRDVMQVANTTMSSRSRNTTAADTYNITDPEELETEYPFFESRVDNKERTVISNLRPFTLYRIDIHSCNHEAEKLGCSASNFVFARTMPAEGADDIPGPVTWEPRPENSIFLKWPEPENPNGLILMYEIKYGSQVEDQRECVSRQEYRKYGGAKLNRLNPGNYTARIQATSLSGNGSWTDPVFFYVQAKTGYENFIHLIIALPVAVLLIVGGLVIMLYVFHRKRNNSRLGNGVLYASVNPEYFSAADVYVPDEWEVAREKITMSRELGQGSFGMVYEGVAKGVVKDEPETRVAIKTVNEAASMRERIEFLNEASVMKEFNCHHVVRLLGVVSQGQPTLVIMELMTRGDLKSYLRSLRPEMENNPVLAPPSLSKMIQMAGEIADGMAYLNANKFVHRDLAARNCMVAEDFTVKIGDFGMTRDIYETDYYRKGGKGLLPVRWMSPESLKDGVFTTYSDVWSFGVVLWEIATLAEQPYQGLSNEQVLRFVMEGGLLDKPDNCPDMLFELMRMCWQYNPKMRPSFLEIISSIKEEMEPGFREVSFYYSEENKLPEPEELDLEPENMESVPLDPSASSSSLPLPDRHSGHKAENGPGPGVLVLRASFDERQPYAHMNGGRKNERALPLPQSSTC
T1 sequence (P07333 20-972): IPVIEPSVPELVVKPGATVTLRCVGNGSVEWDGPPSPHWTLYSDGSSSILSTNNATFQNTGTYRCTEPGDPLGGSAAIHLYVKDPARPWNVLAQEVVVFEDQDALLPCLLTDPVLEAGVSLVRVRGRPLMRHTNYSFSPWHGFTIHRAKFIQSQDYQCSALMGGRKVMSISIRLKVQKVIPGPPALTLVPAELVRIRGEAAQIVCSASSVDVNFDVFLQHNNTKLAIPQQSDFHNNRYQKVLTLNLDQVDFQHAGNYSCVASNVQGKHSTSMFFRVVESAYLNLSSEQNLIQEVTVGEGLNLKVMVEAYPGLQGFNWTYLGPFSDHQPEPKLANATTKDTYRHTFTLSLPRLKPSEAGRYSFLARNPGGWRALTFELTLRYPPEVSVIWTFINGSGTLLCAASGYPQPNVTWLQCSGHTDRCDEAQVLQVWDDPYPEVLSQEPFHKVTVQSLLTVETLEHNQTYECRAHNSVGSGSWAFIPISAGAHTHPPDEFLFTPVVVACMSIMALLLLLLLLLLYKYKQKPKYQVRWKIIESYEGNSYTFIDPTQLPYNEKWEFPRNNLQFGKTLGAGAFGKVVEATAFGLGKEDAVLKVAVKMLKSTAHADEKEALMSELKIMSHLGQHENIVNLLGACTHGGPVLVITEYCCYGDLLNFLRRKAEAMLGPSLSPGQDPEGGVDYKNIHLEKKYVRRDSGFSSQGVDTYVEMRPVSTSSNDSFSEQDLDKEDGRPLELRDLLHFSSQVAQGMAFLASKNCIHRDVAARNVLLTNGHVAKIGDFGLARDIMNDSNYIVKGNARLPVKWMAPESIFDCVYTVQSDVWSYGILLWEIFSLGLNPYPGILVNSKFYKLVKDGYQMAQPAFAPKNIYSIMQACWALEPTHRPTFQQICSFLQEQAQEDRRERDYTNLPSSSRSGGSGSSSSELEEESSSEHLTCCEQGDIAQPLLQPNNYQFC
T4 sequence (P06493 whole entry): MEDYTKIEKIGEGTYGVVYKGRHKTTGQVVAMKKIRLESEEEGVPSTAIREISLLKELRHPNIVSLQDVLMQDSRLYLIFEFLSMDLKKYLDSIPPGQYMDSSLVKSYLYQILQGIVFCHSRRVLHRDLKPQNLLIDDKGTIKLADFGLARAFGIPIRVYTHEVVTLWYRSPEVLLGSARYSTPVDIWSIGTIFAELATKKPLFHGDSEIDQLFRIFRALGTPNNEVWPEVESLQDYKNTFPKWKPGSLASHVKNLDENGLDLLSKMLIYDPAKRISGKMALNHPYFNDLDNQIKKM
T4 sequence (P14635 whole entry partner): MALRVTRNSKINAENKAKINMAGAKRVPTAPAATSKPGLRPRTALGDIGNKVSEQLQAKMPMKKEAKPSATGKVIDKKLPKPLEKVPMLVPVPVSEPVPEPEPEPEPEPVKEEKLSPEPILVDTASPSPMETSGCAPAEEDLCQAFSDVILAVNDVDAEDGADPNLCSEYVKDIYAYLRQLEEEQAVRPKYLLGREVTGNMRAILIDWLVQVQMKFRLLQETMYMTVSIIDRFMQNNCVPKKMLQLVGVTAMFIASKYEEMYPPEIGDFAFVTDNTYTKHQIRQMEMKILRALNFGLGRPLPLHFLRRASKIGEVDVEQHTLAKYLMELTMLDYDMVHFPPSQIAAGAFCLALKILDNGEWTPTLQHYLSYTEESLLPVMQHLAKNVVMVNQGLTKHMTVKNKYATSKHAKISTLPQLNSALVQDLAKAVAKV
T7 sequence (P52564 whole entry): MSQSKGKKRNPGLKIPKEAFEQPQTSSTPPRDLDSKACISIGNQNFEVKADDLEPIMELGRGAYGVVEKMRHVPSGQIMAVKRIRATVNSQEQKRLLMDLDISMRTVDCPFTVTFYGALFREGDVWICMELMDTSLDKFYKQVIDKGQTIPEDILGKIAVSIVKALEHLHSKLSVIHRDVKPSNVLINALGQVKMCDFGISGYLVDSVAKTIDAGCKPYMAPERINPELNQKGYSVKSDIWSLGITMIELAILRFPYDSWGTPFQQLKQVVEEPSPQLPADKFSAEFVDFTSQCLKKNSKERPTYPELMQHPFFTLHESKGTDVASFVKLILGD

C=CC(=O)N[C@@H]1CCCN(c2ncnc3[nH]ccc23)C1 [RB1]
serum TNF-α, IL-1β and IL-6 levels [1]: significantly reduced in a dose-dependent manner | Selectivity JAK2/JAK3 ([2]; GM-CSF, pSTAT5): > 1000 | pIC50 ([2]; Homo sapiens): < 4.30 | activity at 1 µM (Fms): 90% | activity at 1 µM (ALK4): 101% | activity at 1 µM (FGFR1): 80% | activity at 1 µM (CDK1): 96% | activity at 1 µM (ALK): 100% | activity at 1 µM (Flt3): 75% | activity at 1 µM (MKK6): 69% | H&E analysis of the major organs [3]: no significant side effects | body weight during treatment [3]: no fluctuations | group mean histological severity score ([3]; 10 mg/kg): 2.5 | group mean histological severity score ([3]; 30 mg/kg): 1.7 | group mean histological severity score ([3]; 100 mg/kg): 0.9 | arthritis (clinical) scores ([3]; p < 0.05 at 10 mg/kg, p < 0.001 at 30 and 60 mg/kg (so in the source)): lower arthritis scores than untreated CIA mice | activity at 1 µM (IKKα): 97% | inhibition at 1 µM (ITK): -5.9% | activity at 1 µM (IGF-1R): 93% | pIC50 ([4]; Homo sapiens, TF-1, read-out: IC50, STAT and JAK phosphorylation): < 4.30 | Selectivity JAK1/JAK3 ([4]; TF-1, IL-6, pSTAT3): > 1000 | IC50 ([5]; U2OS, read-out: IC50 (nM) JAK1): > 50000 nM | IC50 ([5]; U2OS, read-out: IC50 (nM) JAK2): > 50000 nM | IFN-γ-induced phosphorylation of STAT1 ([5]; U2OS cells, RB1 at concentrations over 50 μM): not affected | Selectivity JAK1/JAK3 ([5]; U2OS, IFN-γ, pSTAT1): > 1000 | Selectivity JAK2/JAK3 ([5]; U2OS, IFN-γ, pSTAT1): > 1000 | activity at 1 µM (GSK3β): 114% | activity at 1 µM (ACK1): 34%
